The values below come from patent publication US4028185A, “Method for producing L(+)-tartaric acid” (priority 1975, dated 1977).

The assay has as its system Acinetobacter tartarogenes KB-112. As to the kind of experiment: Effect of nonionic surfactant (0.1 %) on conversion of calcium cis-epoxysuccinate to L(+)-tartaric acid. In kind it is cell-based. The settings on record: 30° C., 2 days; for Mole Yields (%) of L(+)-tartaric acid: cis-epoxysuccinate 40 % as free acid, particle size 60 micron, not added: 34; for Rate of Residues (%) of cis-epoxysuccinic acid: residue of 12 g as free acid = 100 %, not added: 64. Here is the method:
Acinetobacter tartarogenes KB-112 are used to inoculate 30 ml of culture medium, contained in the Erlenmeyer flask of 200 ml-capacity, which culture medium having been set up into such constitution that, to the basic culture medium which is composed of casamino acid (0.05 %), ammonium nitrate (0.1 %), dipotassium hydrogen phosphate (0.2 %), magnesium sulfate (0.05 %), ferrous sulfate (0.001 %), pH 7.0, various sorts of nonionic surfactants are added so that the respective kinds of surface active agents may come to the concentration of 0.1 %. And simultaneously, the crystals of calcium cis-epoxysuccinate (average particle size: 60 micron) is added, in such way that it may come to the final concentration of 40 % counted as the free acid; and the above mixture is subjected to rotatory shake culture at 30° C., and for 2 days, and thence being allowed to exert reaction effect. After the termination of reaction, and the crystals are collected by filtration and, after addition of sulfuric acid, subjected to centrifugal separator to eliminate the solid substances. Subsequently, the quantitative determinations are made, with respect to L(+)-tartaric acid, by depending upon the optical rotation at 436 mμ; and with respect to the remaining cis-epoxysuccinic acid, by using Payne & Williams Method (G. B. Payne and P. H. Williams: Journal of Organic Chemistry, 24, 54, (1959)).

As to “Propyleneglycol monostearate [NIKKOL PMS-SE]”, the “Mole Yields (%) of L(+)-tartaric acid” value was determined as 46% and the “Rate of Residues (%) of cis-epoxysuccinic acid” value was 50%.

For the compound `CCCCCCCCCCCCCCCCCC(=O)OCC(O)CO` (stereo not drawn) [NIKKOL MGS-C, Glyceryl monostearate], the “Mole Yields (%) of L(+)-tartaric acid” value is 48% and the “Rate of Residues (%) of cis-epoxysuccinic acid” value was determined as 47%.

Turning to Sorbitan monooleate [NIKKOL SR-10], the “Mole Yields (%) of L(+)-tartaric acid” value is listed as 45% and the “Rate of Residues (%) of cis-epoxysuccinic acid” value is listed as 52%.
